According to ChEMBL document CHEMBL3046822, “Synthesis, antiplatelet aggregation activity, and molecular modeling study of novel substituted-piperazine analogues” (2011):
Activity calls are given as the source filed them. The rule behind the calls is not given here.

What was measured:
[1] = tested on: Platelet; assay: Antiaggregating activity in Homo sapiens (human) platelet rich plasma assessed as inhibition of collagen-induced platelet aggregation at 1 uM incubated for 4 min prior to collagen-induction measured for 5.5 min by turbidometric analysis; format: functional, cell-free
[2] = Antiaggregating activity in Homo sapiens (human) platelet rich plasma assessed as ristocetin-induced platelet aggregation at 0.125 uM incubated for 4 min prior to ristocetin-induction measured for 5.5 min by turbidometric analysis (reference value: 65 to 99%); format: functional
[3] = tested on: Platelet; assay: Antiaggregating activity in Homo sapiens (human) platelet rich plasma assessed as inhibition of arachidonic acid-induced platelet aggregation at 0.125 uM incubated for 4 min prior to arachidonic acid-induction measured for 5.5 min by turbidometric analysis; format: functional, cell-free
[4] = tested on: Platelet; assay: Antiaggregating activity in Homo sapiens (human) platelet rich plasma assessed as inhibition of ADP-induced platelet aggregation at 0.5 uM incubated for 4 min prior to ADP-induction measured for 5.5 min by turbidometric analysis; format: functional, cell-free
[5] = Antiaggregating activity in Homo sapiens (human) platelet rich plasma assessed as collagen-induced platelet aggregation at 0.125 uM incubated for 4 min prior to collagen-induction measured for 5.5 min by turbidometric analysis (reference value: 50 to 98%); format: functional
[6] = Antiaggregating activity in Homo sapiens (human) platelet rich plasma assessed as disaggregation of ADP-induced platelet aggregation at 0.125 uM incubated for 4 min prior to ADP-induction measured for 5.5 min by turbidometric analysis relative to control; format: functional
[7] = tested on: Platelet; assay: Antiaggregating activity in Homo sapiens (human) platelet rich plasma assessed as inhibition of adrenaline-induced platelet aggregation at 0.5 uM incubated for 4 min prior to adrenaline-induction measured for 5.5 min by turbidometric analysis; format: functional, cell-free
[8] = Antiaggregating activity in Homo sapiens (human) platelet rich plasma assessed as ristocetin-induced platelet aggregation at 1 uM incubated for 4 min prior to ristocetin-induction measured for 5.5 min by turbidometric analysis (reference value: 65 to 99%); format: functional
[9] = tested on: Platelet; assay: Antiaggregating activity in Homo sapiens (human) platelet rich plasma assessed as inhibition of arachidonic acid-induced platelet aggregation at 0.25 uM incubated for 4 min prior to arachidonic acid-induction measured for 5.5 min by turbidometric analysis; format: functional, cell-free
[10] = tested on: Platelet; assay: Antiaggregating activity in Homo sapiens (human) platelet rich plasma assessed as inhibition of adrenaline-induced platelet aggregation at 0.25 uM incubated for 4 min prior to adrenaline-induction measured for 5.5 min by turbidometric analysis; format: functional, cell-free
[11] = tested on: Platelet; assay: Antiaggregating activity in Homo sapiens (human) platelet rich plasma assessed as inhibition of adrenaline-induced platelet aggregation at 1 uM incubated for 4 min prior to adrenaline-induction measured for 5.5 min by turbidometric analysis; format: functional, cell-free
[12] = Antiaggregating activity in Homo sapiens (human) platelet rich plasma assessed as ristocetin-induced platelet aggregation at 0.5 uM incubated for 4 min prior to ristocetin-induction measured for 5.5 min by turbidometric analysis (reference value: 65 to 99%); format: functional
[13] = tested on: Platelet; assay: Antiaggregating activity in Homo sapiens (human) platelet rich plasma assessed as inhibition of ADP-induced platelet aggregation at 1 uM incubated for 4 min prior to ADP-induction measured for 5.5 min by turbidometric analysis; format: functional, cell-free
[14] = Antiaggregating activity in Homo sapiens (human) platelet rich plasma assessed as disaggregation of ristocetin-induced platelet aggregation at 0.25 uM incubated for 4 min prior to ristocetin-induction measured for 5.5 min by turbidometric analysis relative to control; format: functional
[15] = tested on: Platelet; assay: Antiaggregating activity in Homo sapiens (human) platelet rich plasma assessed as inhibition of ADP-induced platelet aggregation at 0.25 uM incubated for 4 min prior to ADP-induction measured for 5.5 min by turbidometric analysis; format: functional, cell-free
[16] = tested on: Platelet; assay: Antiaggregating activity in Homo sapiens (human) platelet rich plasma assessed as inhibition of arachidonic acid-induced platelet aggregation at 1 uM incubated for 4 min prior to arachidonic acid-induction measured for 5.5 min by turbidometric analysis; format: functional, cell-free
[17] = tested on: Platelet; assay: Antiaggregating activity in Homo sapiens (human) platelet rich plasma assessed as inhibition of collagen-induced platelet aggregation at 0.25 uM incubated for 4 min prior to collagen-induction measured for 5.5 min by turbidometric analysis; format: functional
[18] = tested on: Platelet; assay: Antiaggregating activity in Homo sapiens (human) platelet rich plasma assessed as inhibition of arachidonic acid-induced platelet aggregation at 0.5 uM incubated for 4 min prior to arachidonic acid-induction measured for 5.5 min by turbidometric analysis; format: functional
[19] = tested on: Platelet; assay: Antiaggregating activity in Homo sapiens (human) platelet rich plasma assessed as inhibition of adrenaline-induced platelet aggregation at 0.125 uM incubated for 4 min prior to adrenaline-induction measured for 5.5 min by turbidometric analysis; format: functional, cell-free
[20] = tested on: Platelet; assay: Antiaggregating activity in Homo sapiens (human) platelet rich plasma assessed as inhibition of collagen-induced platelet aggregation at 0.5 uM incubated for 4 min prior to collagen-induction measured for 5.5 min by turbidometric analysis; format: functional, cell-free
[21] = tested on: Platelet; assay: Antiaggregating activity in Homo sapiens (human) platelet rich plasma assessed as inhibition of collagen-induced platelet aggregation at 5 uM incubated for 4 min prior to collagen-induction measured for 5.5 min by turbidometric analysis; format: functional, cell-free
[22] = Antiaggregating activity in Homo sapiens (human) platelet rich plasma assessed as arachidonic acid-induced platelet aggregation at 1 uM incubated for 4 min prior to arachidonic acid-induction measured for 5.5 min by turbidometric analysis (reference value: 55 to 100%); format: functional
[23] = tested on: Platelet; assay: Antiaggregating activity in Homo sapiens (human) platelet rich plasma assessed as inhibition of collagen-induced platelet aggregation at 10 uM incubated for 4 min prior to collagen-induction measured for 5.5 min by turbidometric analysis; format: functional, cell-free
[24] = tested on: Platelet; assay: Antiaggregating activity in Homo sapiens (human) platelet rich plasma assessed as inhibition of collagen-induced platelet aggregation at 20 uM incubated for 4 min prior to collagen-induction measured for 5.5 min by turbidometric analysis; format: functional, cell-free
[25] = tested on: Platelet; assay: Antiaggregating activity in Homo sapiens (human) platelet rich plasma assessed as inhibition of adrenaline-induced platelet aggregation at 20 uM incubated for 4 min prior to adrenaline-induction measured for 5.5 min by turbidometric analysis; format: functional, cell-free
[26] = tested on: Platelet; assay: Antiaggregating activity in Homo sapiens (human) platelet rich plasma assessed as inhibition of arachidonic acid-induced platelet aggregation at 5 uM incubated for 4 min prior to arachidonic acid-induction measured for 5.5 min by turbidometric analysis; format: functional, cell-free
[27] = tested on: Platelet; assay: Antiaggregating activity in Homo sapiens (human) platelet rich plasma assessed as inhibition of adrenaline-induced platelet aggregation at 5 uM incubated for 4 min prior to adrenaline-induction measured for 5.5 min by turbidometric analysis; format: functional, cell-free
[28] = tested on: Platelet; assay: Antiaggregating activity in Homo sapiens (human) platelet rich plasma assessed as inhibition of arachidonic acid-induced platelet aggregation at 10 uM incubated for 4 min prior to arachidonic acid-induction measured for 5.5 min by turbidometric analysis; format: functional, cell-free
[29] = tested on: Platelet; assay: Antiaggregating activity in Homo sapiens (human) platelet rich plasma assessed as inhibition of ADP-induced platelet aggregation at 10 uM incubated for 4 min prior to ADP-induction measured for 5.5 min by turbidometric analysis; format: functional, cell-free
[30] = tested on: Platelet; assay: Antiaggregating activity in Homo sapiens (human) platelet rich plasma assessed as inhibition of ristocetin-induced platelet aggregation at 20 uM incubated for 4 min prior to ristocetin-induction measured for 5.5 min by turbidometric analysis; format: functional, cell-free
[31] = Antiaggregating activity in Homo sapiens (human) platelet rich plasma assessed as ristocetin-induced platelet aggregation at 5 uM incubated for 4 min prior to ristocetin-induction measured for 5.5 min by turbidometric analysis (reference value: 65 to 99%); format: functional
[32] = tested on: Platelet; assay: Antiaggregating activity in Homo sapiens (human) platelet rich plasma assessed as inhibition of adrenaline-induced platelet aggregation at 10 uM incubated for 4 min prior to adrenaline-induction measured for 5.5 min by turbidometric analysis; format: functional, cell-free
[33] = Antiaggregating activity in Homo sapiens (human) platelet rich plasma assessed as ADP-induced platelet aggregation at 1 uM incubated for 4 min prior to ADP-induction measured for 5.5 min by turbidometric analysis (reference value: 54 to 88%); format: functional
[34] = Antiaggregating activity in Homo sapiens (human) platelet rich plasma assessed as ADP-induced platelet aggregation at 5 uM incubated for 4 min prior to ADP-induction measured for 5.5 min by turbidometric analysis (reference value: 54 to 88%); format: functional
[35] = tested on: Platelet; assay: Antiaggregating activity in Homo sapiens (human) platelet rich plasma assessed as inhibition of arachidonic acid-induced platelet aggregation at 20 uM incubated for 4 min prior to arachidonic acid-induction measured for 5.5 min by turbidometric analysis; format: functional, cell-free
[36] = Antiaggregating activity in Homo sapiens (human) platelet rich plasma assessed as ristocetin-induced platelet aggregation at 10 uM incubated for 4 min prior to ristocetin-induction measured for 5.5 min by turbidometric analysis (reference value: 65 to 99%); format: functional
[37] = Antiaggregating activity in Homo sapiens (human) platelet rich plasma assessed as collagen-induced platelet aggregation at 1 uM incubated for 4 min prior to collagen-induction measured for 5.5 min by turbidometric analysis (reference value: 50 to 98%); format: functional
[38] = tested on: Platelet; assay: Antiaggregating activity in Homo sapiens (human) platelet rich plasma assessed as ADP-induced platelet aggregation at 20 uM incubated for 4 min prior to ADP-induction measured for 5.5 min by turbidometric analysis (reference value: 54 to 88%); format: functional

## Cl.O=C(C1CCCN(Cc2ccc(F)cc2)C1)N1CCN(c2ccccc2Cl)CC1 (stereo not given)
[1]
  inhibition: Active
[2]
  Activity: 100%
[3]
  inhibition: Active
[4]
  inhibition: Active
[5]
  Activity: 72%
[6]
  Activity: 80%
[7]
  inhibition: Active
[8]
  Activity: 40%
[9]
  inhibition: Active
[10]
  inhibition: Active
[11]
  inhibition: Active
[12]
  Activity: 67%
[13]
  inhibition: Active
[14]
  Activity: 68%
[15]
  inhibition: Active
[16]
  inhibition: Active
[17]
  inhibition: Active
[18]
  inhibition: Active
[19]
  inhibition: Active
[20]
  inhibition: Active

## O=C(c1ccc[n+](Cc2ccc(Br)cc2)c1)N1CCN(c2ncccn2)CC1.[Br-]
[21]
  inhibition: Active
[22]
  Activity: 52%
[23]
  inhibition: Active
[24]
  inhibition: Active
[25]
  inhibition: Active
[26]
  inhibition: Active
[27]
  inhibition: Active
[28]
  inhibition: Active
[29]
  inhibition: Active
[8]
  Activity: 60%
[30]
  inhibition: Active
[11]
  inhibition: Active
[31]
  Activity: 43%
[32]
  inhibition: Active
[33]
  Activity: 60%
[34]
  Activity: 64%
[35]
  inhibition: Active
[36]
  Activity: 27%
[37]
  Activity: 64%
[38]
  inhibition: Active
